According to ChEMBL document CHEMBL3046672, “Synthesis and bioevaluation of Schiff and Mannich bases of isatin derivatives with 4-amino-5-benzyl-2,4-dihydro-3H-1,2,4-triazole-3-thione” (2012):

Tests used:
Format in all cases: functional
Conditions in all cases: read-out: DIZ
[1] = system: Aspergillus niger; assay: Antifungal activity against Aspergillus niger at 200 ug/ml
[2] = system: Staphylococcus aureus; assay: Antibacterial activity against Staphylococcus aureus at 50 ug/ml
[3] = system: Candida albicans; assay: Antifungal activity against Candida albicans at 50 ug/ml
[4] = system: Candida albicans; assay: Antifungal activity against Candida albicans at 100 ug/ml
[5] = system: Escherichia coli; assay: Antibacterial activity against Escherichia coli at 200 ug/ml
[6] = system: Bacillus subtilis; assay: Antibacterial activity against Bacillus subtilis at 50 ug/ml
[7] = system: Staphylococcus aureus; assay: Antibacterial activity against Staphylococcus aureus at 100 ug/ml
[8] = system: Pseudomonas aeruginosa; assay: Antibacterial activity against Pseudomonas aeruginosa at 100 ug/ml
[9] = system: Aspergillus niger; assay: Antifungal activity against Aspergillus niger at 100 ug/ml
[10] = system: Escherichia coli; assay: Antibacterial activity against Escherichia coli at 50 ug/ml
[11] = system: Pseudomonas aeruginosa; assay: Antibacterial activity against Pseudomonas aeruginosa at 50 ug/ml
[12] = system: Bacillus subtilis; assay: Antibacterial activity against Bacillus subtilis at 100 ug/ml
[13] = system: Candida albicans; assay: Antifungal activity against Candida albicans at 200 ug/ml
[14] = system: Bacillus subtilis; assay: Antibacterial activity against Bacillus subtilis at 200 ug/ml
[15] = system: Pseudomonas aeruginosa; assay: Antibacterial activity against Pseudomonas aeruginosa at 200 ug/ml
[16] = system: Escherichia coli; assay: Antibacterial activity against Escherichia coli at 100 ug/ml
[17] = system: Staphylococcus aureus; assay: Antibacterial activity against Staphylococcus aureus at 200 ug/ml

Structure (SMILES)	zone of inhibition at 200 µg/mL [1]	zone of inhibition at 50 µg/mL [2]	zone of inhibition at 50 µg/mL [3]	zone of inhibition at 100 µg/mL [4]	zone of inhibition at 200 µg/mL [5]	zone of inhibition at 50 µg/mL [6]	zone of inhibition at 100 µg/mL [7]	zone of inhibition at 100 µg/mL [8]	zone of inhibition at 100 µg/mL [9]	zone of inhibition at 50 µg/mL [10]	zone of inhibition at 50 µg/mL [11]	zone of inhibition at 100 µg/mL [12]	zone of inhibition at 200 µg/mL [13]	zone of inhibition at 200 µg/mL [14]	zone of inhibition at 200 µg/mL [15]	zone of inhibition at 100 µg/mL [16]	zone of inhibition at 200 µg/mL [17]
O=C1/C(=N\n2c(Cc3ccccc3)n[nH]c2=S)c2cc(Cl)ccc2N1CN1CCCCC1	15 mm	9 mm	9 mm	11 mm	25 mm	9 mm	12 mm	15 mm	9 mm	10 mm	10 mm	13 mm	16 mm	22 mm	21 mm	16 mm	20 mm
O=C1/C(=N\n2c(Cc3ccccc3)n[nH]c2=S)c2cc(Br)ccc2N1CN1CCCCC1	15 mm	9 mm		10 mm	25 mm	10 mm	14 mm	15 mm	9 mm	10 mm	10 mm	15 mm	16 mm	20 mm	22 mm	16 mm	21 mm
O=C1/C(=N\n2c(Cc3ccccc3)n[nH]c2=S)c2ccccc2N1CN1CCOCC1	12 mm	10 mm		10 mm	23 mm	9 mm	15 mm	12 mm	9 mm	9 mm	9 mm	13 mm	15 mm	20 mm	22 mm	15 mm	19 mm
O=C1/C(=N\n2c(Cc3ccccc3)n[nH]c2=S)c2cc(Cl)ccc2N1CN1CCOCC1	17 mm	9 mm		10 mm	25 mm	9 mm	14 mm	15 mm	9 mm	11 mm	9 mm	13 mm	17 mm	22 mm	25 mm	16 mm	20 mm
O=C1/C(=N\n2c(Cc3ccccc3)n[nH]c2=S)c2cc(Br)ccc2N1CN1CCOCC1	12 mm	9 mm		10 mm	24 mm	9 mm	13 mm	15 mm	9 mm	9 mm	10 mm	12 mm	15 mm	21 mm	24 mm	16 mm	20 mm
O=C(O)c1cn(C2CC2)c2cc(N3CCNCC3)c(F)cc2c1=O [CIPROFLOXACIN]					30 mm									25 mm	28 mm		26 mm
OC(Cn1cncn1)(Cn1cncn1)c1ccc(F)cc1F [FLUCONAZOLE]	18 mm												20 mm				
